Our source for the EC50 values is patent US8778926B2, “Compounds, pharmaceutical compositions and uses thereof” (Boehringer Ingelheim International GmbH, priority 2011, dated 2014).

The structures appear in SMILES notation.

For the test, the target named is T1, human GPR119 (Homo sapiens, UniProt Q8TDV5).
T1 construct: expression vector for human GPR119 cDNA (Acc. No. NP_848566); expressed in transfected cells
T1 sequence (Q8TDV5 1-335): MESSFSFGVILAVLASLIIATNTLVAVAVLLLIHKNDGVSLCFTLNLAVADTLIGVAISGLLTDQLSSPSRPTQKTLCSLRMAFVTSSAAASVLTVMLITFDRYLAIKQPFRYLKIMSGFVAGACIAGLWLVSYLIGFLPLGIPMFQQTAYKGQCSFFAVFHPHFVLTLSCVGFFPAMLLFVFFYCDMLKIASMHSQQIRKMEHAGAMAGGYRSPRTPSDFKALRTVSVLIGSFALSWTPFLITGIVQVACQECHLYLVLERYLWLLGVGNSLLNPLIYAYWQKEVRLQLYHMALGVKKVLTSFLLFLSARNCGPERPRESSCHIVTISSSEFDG
Briefly: AlphaScreen cAMP assay, activation of GPR119 in Min-6/hGPR119 cells. The settings on record: MIN6 cells stably transfected with human GPR119; intracellular cAMP; 45 minutes incubation at room temperature. Type of test: cell-based. The procedure: The compounds of formula I according to the invention modulate the activity of the G-protein-coupled receptor GPR119. The effect of the compounds on the activation of GPR119 and on the stimulation of intracellular cAMP concentration is determined using the AlphaScreen cAMP Assay Kit (Cat. No. #6760625R) made by PerkinElmer.
MIN6 cells [Miyazaki J et al. Endocrinology. 1990 July; 127(1):126-32] are stably transfected with an expression vector for human GPR119 cDNA (Acc. No. NP_848566). Min-6/hGPR119 cells are cultured in DMEM, 10% FBS, 500 μM β-mercaptoethanol, 0.3 mg/mL Geniticin, 2 mM GlutaMAX at 37° C. 5% CO2. For the assay, the cells are seeded in Optiplates (white, 384-well, 160 W— barcoded, TC, sterile with lid, Cat. No. #6007688 (Perkin Elmer); 10000 cells/well; 50 μl). The plates covered with lids are then incubated for 24 hours at 37° C./5% CO2. After the medium is aspirated from the wells completely, 10 μl of the test compound are added, the compounds are diluted using stimulating buffer (140 mM NaCl, 3.6 mM KCl, 0.5 mM NaH2PO4, 0.5 mM MgSO4, 1.5 mM CaCl2, 10 mM Hepes, 5 mM NaHCO3; pH 7.4. 0.5 mM IBMX and 0.1% BSA, the final DMSO concentration is 1%). After 45 minutes incubation at room temperature (approx. 20° C.), the cAMP concentrations are determined using the AlphaScreen cAMP Assay Kit (Cat. No. #6760625R from PerkinElmer).
For `CCc1cnc(N2CCC(C3Cc4cc(-c5ccc(CS(C)(=O)=O)cc5)ncc4O3)CC2)nc1` (stereo not shown) [Example 12, 2-[1-(5-Ethyl-pyrimidin-2-yl)-piperidin-4-yl]-5-(4-methanesulfonylmethyl-phenyl)-2,3-dihydro-furo[2,3-c]pyridine], a half-maximal effect (EC50) was put at 22 nM.
As for `CC(C)c1noc(N2CCC(C3Cc4cc(-c5ccc(CS(C)(=O)=O)cc5)ncc4O3)CC2)n1` (stereo not shown) [Example 13, 2-[1-(3-Isopropyl-[1,2,4]oxadiazol-5-yl)-piperidin-4-yl]-5-(4-methanesulfonylmethyl-phenyl)-2,3-dihydro-furo[2,3-c]pyridine], the figure is 28 nM; as for `CS(=O)(=O)c1ccc(-c2cc3c(cn2)OC(C2CCN(c4nc(C(F)(F)F)no4)CC2)C3)cc1` (stereo not shown) [Example 14, 5-(4-Methanesulfonyl-phenyl)-2-[1-(3-trifluoromethyl-[1,2,4]oxadiazol-5-yl)-piperidin-4-yl]-2,3-dihydro-furo[2,3-c]pyridine], 29 nM.
The compound `CCCc1noc(N2CCC(C3Cc4cc(-c5ccc(CS(C)(=O)=O)cc5)ncc4O3)CC2)n1` (stereo not shown) [Example 15, 5-(4-Methanesulfonylmethyl-phenyl)-2-[1-(3-propyl-[1,2,4]oxadiazol-5-yl)-piperidin-4-yl]-2,3-dihydro-furo[2,3-c]pyridine] had a half-maximal effective concentration (EC50) of 38 nM. This EC50 and that of the compound before are within 1.5-fold of each other.
The result for `CC(C)c1nc(N2CCC(C3Cc4cc(-c5ccc(CS(C)(=O)=O)cc5)ncc4O3)CC2)no1` (stereo not shown) [Example 16] reads 17 nM.
As for `CCCc1nc(N2CCC(C3Cc4cc(-c5ccc(CS(C)(=O)=O)cc5)ncc4O3)CC2)no1` (stereo not shown) [Example 17, 5-(4-Methanesulfonylmethyl-phenyl)-2-[1-(5-propyl-[1,2,4]oxadiazol-3-yl)-piperidin-4-yl]-2,3-dihydro-furo[2,3-c]pyridine], the figure is 21 nM.
The result for `CCc1cnc(N2CCC(C3Cc4cc(C5=CCN(S(C)(=O)=O)CC5)ncc4O3)CC2)nc1` (stereo not shown) [Example 18, 2-[1-(5-Ethyl-pyrimidin-2-yl)-piperidin-4-yl]-5-(1-methanesulfonyl-1,2,3,6-tetrahydro-Pyridin-4-yl)-2,3-dihydro-furo[2,3-c]pyridine] reads 2 nM; that for `CCCc1noc(N2CCC(C3Cc4cc(C5=CCN(S(C)(=O)=O)CC5)ncc4O3)CC2)n1` (stereo not shown) [Example 19, 5-(1-Methanesulfonyl-1,2,3,6-tetrahydro-pyridin-4-yl)-2-[1-(3-propyl-[1,2,4]oxadiazol-5-yl)-piperidin-4-yl]-2,3-dihydro-furo[2,3-c]pyridine], 25 nM.
`CC(C)c1noc(N2CCC(C3Cc4cc(C5=CCN(S(C)(=O)=O)CC5)ncc4O3)CC2)n1` (stereo not shown) [Example 20, 2-[1-(3-Isopropyl-[1,2,4]oxadiazol-5-yl)-piperidin-4-yl]-5-(1-methanesulfonyl-1,2,3,6-tetrahydro-pyridin-4-yl)-2,3-dihydro-furo[2,3-c]pyridine]: the response was half-maximal at 16 nM (EC50).
Compound `CC(C)c1noc(N2CCC(C3Cc4cc(-c5ccc(CS(C)(=O)=O)cc5F)ncc4O3)CC2)n1` (stereo not shown) [Example 21, 5-(2-Fluoro-4-methanesulfonylmethyl-phenyl)-2-[1-(3-isopropyl-[1,2,4]oxadiazol-5-yl)-piperidin-4-yl]-2,3-dihydro-furo[2,3-c]pyridine] gave a concentration giving a half-maximal response (EC50) of 28 nM.
The result for `CC(C)c1nc(N2CCC(C3Cc4cc(C5=CCN(S(C)(=O)=O)CC5)ncc4O3)CC2)no1` (stereo not shown) [Example 22] reads 6 nM.
As for `CCCc1nc(N2CCC(C3Cc4cc(C5=CCN(S(C)(=O)=O)CC5)ncc4O3)CC2)no1` (stereo not shown) [Example 23, 5-(1-Methanesulfonyl-1,2,3,6-tetrahydro-pyridin-4-yl)-2-[1-(5-propyl-[1,2,4]oxadiazol-3-yl)-piperidin-4-yl]-2,3-dihydro-furo[2,3-c]pyridine], the figure is 7 nM; as for `CC(C)c1nc(N2CCC(C3Cc4cc(-c5ccc(CS(C)(=O)=O)cc5F)ncc4O3)CC2)no1` (stereo not shown) [Example 24, 5-(2-Fluoro-4-methanesulfonylmethyl-phenyl)-2-[1-(5-isopropyl-[1,2,4]oxadiazol-3-yl)-piperidin-4-yl]-2,3-dihydro-furo[2,3-c]pyridine], 60 nM.
As for `CCCc1nc(N2CCC(C3Cc4cc(-c5ccc(CS(C)(=O)=O)cc5F)ncc4O3)CC2)no1` (stereo not shown) [Example 25, 5-(2-Fluoro-4-methanesulfonylmethyl-phenyl)-2-[1-(5-propyl-[1,2,4]oxadiazol-3-yl)-piperidin-4-yl]-2,3-dihydro-furo[2,3-c]pyridine], the figure is 62 nM; as for `CC(C)(C)c1noc(N2CCC(C3Cc4cc(C5=CCN(S(C)(=O)=O)CC5)ncc4O3)CC2)n1` (stereo not shown) [Example 34, 2-[1-(3-tert-Butyl-[1,2,4]oxadiazol-5-yl)-piperidin-4-yl]-5-(1-methanesulfonyl-1,2,3,6-tetrahydro-pyridin-4-yl)-2,3-dihydro-furo[2,3-c]pyridine], 18 nM.
`CC(C)(C)c1nc(N2CCC(C3Cc4cc(C5=CCN(S(C)(=O)=O)CC5)ncc4O3)CC2)no1` (stereo not shown) [Example 39] registered a 50% effective concentration (EC50) of 8 nM.
The result for `CCc1cnc(N2CCC(C3Cc4cc(-c5ccc(C(=O)N6CCOCC6)cc5)ccc4O3)CC2)nc1` (stereo not shown) [Example 60] reads 11 nM; that for `CCc1cnc(N2CCC(C3Cc4cc(-c5ccc(C(=O)N(C)C6CCCOC6)cc5)ccc4O3)CC2)nc1` (stereo not shown) [Example 61], 47 nM.
As for `CCc1cnc(N2CCC(C3Cc4cc(-c5ccc(C(=O)N(C)CCOC)cc5)ccc4O3)CC2)nc1` (stereo not shown) [Example 62], the figure is 20 nM.
In turn, `CCc1cnc(N2CCC(C3Cc4cc(-c5ccc(C(=O)NCC(C)(C)CO)cc5)ccc4O3)CC2)nc1` (stereo not shown) [Example 63] showed an EC50 of 112 nM.
The result for `CCc1cnc(N2CCC(C3Cc4cc(-c5ccc(C(=O)NCc6cocn6)cc5)ccc4O3)CC2)nc1` (stereo not shown) [Example 64] reads 33 nM; that for `CCc1cnc(N2CCC(C3Cc4cc(-c5ccc(C(=O)NCCC(C)O)cc5)ccc4O3)CC2)nc1` (stereo not shown) [Example 66], 63 nM.
As for `CCc1cnc(N2CCC(C3Cc4cc(-c5ccc(C(=O)NCC#N)cc5)ccc4O3)CC2)nc1` (stereo not shown) [Example 67], the figure is 141 nM.
The result for `CCc1cnc(N2CCC(C3Cc4cc(-c5ccc(C(=O)N6CCC(C)(O)C6)cc5)ccc4O3)CC2)nc1` (stereo not shown) [Example 68] reads 60 nM; that for `CCc1cnc(N2CCC(C3Cc4cc(-c5ccc(C(=O)N6CCC(OC)CC6)cc5)ccc4O3)CC2)nc1` (stereo not shown) [Example 69], 48 nM.
With `CCc1cnc(N2CCC(C3Cc4cc(-c5ccc(C(=O)N6CCC(O)C6)cc5)ccc4O3)CC2)nc1` (stereo not shown) [Example 70], a half-maximal effect (EC50) was put at 108 nM.
As for `CCc1cnc(N2CCC(C3Cc4cc(-c5ccc(C(=O)N(C)CC#N)cc5)ccc4O3)CC2)nc1` (stereo not shown) [Example 71], the figure is 16 nM; as for `CCc1cnc(N2CCC(C3Cc4cc(-c5ccc(C(=O)NCC6CCCO6)cc5)ccc4O3)CC2)nc1` (stereo not shown) [Example 72], 12 nM; as for `CCc1cnc(N2CCC(C3Cc4cc(-c5ccc(C(=O)NCc6ccccn6)cc5)ccc4O3)CC2)nc1` (stereo not shown) [Example 73], 19 nM.
Turning to `CCc1cnc(N2CCC(C3Cc4cc(-c5ccc(C(=O)NCC(C)O)cc5)ccc4O3)CC2)nc1` (stereo not shown) [Example 74], the EC50 amounted to 52 nM.
The compound `CCc1cnc(N2CCC(C3Cc4cc(-c5ccc(C(=O)NCCC(C)(C)O)cc5)ccc4O3)CC2)nc1` (stereo not shown) [Example 75] showed an EC50 of 81 nM.
The compound `CCc1cnc(N2CCC(C3Cc4cc(-c5ccc(C(=O)N6CC(OC)C6)cc5)ccc4O3)CC2)nc1` (stereo not shown) [Example 76] displayed a half-maximal effective concentration (EC50) of 59 nM.
The result for `CCc1cnc(N2CCC(C3Cc4cc(-c5ccc(C(=O)NCC6COCCO6)cc5)ccc4O3)CC2)nc1` (stereo not shown) [Example 77] reads 19 nM; that for `CCc1cnc(N2CCC(C3Cc4cc(-c5ccc(C(=O)N(C)CCO)cc5)ccc4O3)CC2)nc1` (stereo not shown) [Example 78], 39 nM.
